Measurements reported in patent publication US10582709B2, “Butyrolactones as herbicides” (FMC Corporation, priority 2015, dated 2020).

Experiments:
Format in all cases: in vivo
[1] = tested on: foxtail, giant (giant foxtail, Setaria faberii); assay: Test A preemergence, giant foxtail; settings: visual rating after approx. 10 d, 0 to 100 scale, 0 no effect, 100 complete control
Text: (§1) Seeds of plant species selected from barnyardgrass (Echinochloa crus-galli), crabgrass (large crabgrass, Digitaria sanguinalis), kochia (Kochia scoparia), ragweed (common ragweed, Ambrosia elatior), morningglory (Ipomoea spp.), velvetleaf (Abutilon theophrasti), ryegrass, Italian (Italian ryegrass, Lolium multiflorum), foxtail, giant (giant foxtail, Setaria faberii), wheat (Triticum aestivum), corn (Zea mays), and pigweed (Amaranthus retroflexus), were planted into a blend of loam soil and sand and treated preemergence with a directed soil spray using test chemicals formulated in a non-phytotoxic solvent mixture which included a surfactant. At the same time, plants selected from these crop and weed species and also blackgrass (Alopecurus myosuroides), and galium (catchweed bedstraw, Galium aparine), were planted in pots containing the same blend of loam soil and sand and treated with postemergence applications of test chemicals formulated in the same manner. Plants ranged in height from 2 to 10 cm and were in the one- to two-leaf stage for the postemergence treatment. Treated plants and untreated controls were maintained in a greenhouse for approximately 10 d, after which time all treated plants were compared to untreated controls and visually evaluated for injury. Plant response ratings, summarized in Table A, are based on a 0 to 100 scale where 0 is no effect and 100 is complete control. A dash (-) response means no test result.

[2] = tested on: ryegrass, Italian (Italian ryegrass, Lolium multiflorum); assay: Test A preemergence, Italian ryegrass; settings: visual rating after approx. 10 d, 0 to 100 scale, 0 no effect, 100 complete control
Text: as §1

rice (Oryza sativa) = assay: Test B flooded paddy test, rice; settings: applied to paddy water at 2-leaf stage, 13 to 15 d, scale 0 no effect to 100 complete control
Description: (§2) Plant species in the flooded paddy test selected from rice (Oryza sativa), sedge, umbrella (small-flower umbrella sedge, Cyperus difformis), ducksalad (Heteranthera limosa), and barnyardgrass (Echinochloa crus-galli) were grown to the 2-leaf stage for testing. At time of treatment, test pots were flooded to 3 cm above the soil surface, treated by application of test compounds directly to the paddy water, and then maintained at that water depth for the duration of the test. Treated plants and controls were maintained in a greenhouse for 13 to 15 d, after which time all species were compared to controls and visually evaluated. Plant response ratings, summarized in Table B, are based on a scale of 0 to 100 where 0 is no effect and 100 is complete control. A dash (-) response means no test result.

[3] = tested on: ryegrass, Italian (Italian ryegrass, Lolium multiflorum); assay: Test A postemergence, Italian ryegrass; settings: visual rating after approx. 10 d, 0 to 100 scale, 0 no effect, 100 complete control
Text: as §1

[4] = tested on: wheat (Triticum aestivum); assay: Test A postemergence, wheat; settings: visual rating after approx. 10 d, 0 to 100 scale, 0 no effect, 100 complete control
Text: as §1

[5] = tested on: ducksalad (Heteranthera limosa); assay: Test B flooded paddy test, ducksalad; settings: applied to paddy water at 2-leaf stage, 13 to 15 d, scale 0 no effect to 100 complete control
Description: as §2

[6] = tested on: pigweed (Amaranthus retroflexus); assay: Test A postemergence, pigweed; settings: visual rating after approx. 10 d, 0 to 100 scale, 0 no effect, 100 complete control
Text: as §1

[7] = tested on: ragweed (common ragweed, Ambrosia elatior); assay: Test A preemergence, ragweed; settings: visual rating after approx. 10 d, 0 to 100 scale, 0 no effect, 100 complete control
Text: as §1

[8] = tested on: barnyardgrass (Echinochloa crus-galli); assay: Test A preemergence, barnyardgrass; settings: visual rating after approx. 10 d, 0 to 100 scale, 0 no effect, 100 complete control
Text: as §1

[9] = tested on: barnyardgrass (Echinochloa crus-galli); assay: Test B flooded paddy test, barnyardgrass; settings: applied to paddy water at 2-leaf stage, 13 to 15 d, scale 0 no effect to 100 complete control
Description: as §2

[10] = tested on: barnyardgrass (Echinochloa crus-galli); assay: Test A postemergence, barnyardgrass; settings: visual rating after approx. 10 d, 0 to 100 scale, 0 no effect, 100 complete control
Text: as §1

kochia (Kochia scoparia) [11] = assay: Test A preemergence, kochia; settings: visual rating after approx. 10 d, 0 to 100 scale, 0 no effect, 100 complete control
Text: as §1

[12] = tested on: ragweed (common ragweed, Ambrosia elatior); assay: Test A postemergence, ragweed; settings: visual rating after approx. 10 d, 0 to 100 scale, 0 no effect, 100 complete control
Text: as §1

[13] = tested on: sedge, umbrella (small-flower umbrella sedge, Cyperus difformis); assay: Test B flooded paddy test, umbrella sedge; settings: applied to paddy water at 2-leaf stage, 13 to 15 d, scale 0 no effect to 100 complete control
Description: as §2

[14] = tested on: foxtail, giant (giant foxtail, Setaria faberii); assay: Test A postemergence, giant foxtail; settings: visual rating after approx. 10 d, 0 to 100 scale, 0 no effect, 100 complete control
Text: as §1

[15] = tested on: galium (catchweed bedstraw, Galium aparine); assay: Test A postemergence, galium; settings: visual rating after approx. 10 d, 0 to 100 scale, 0 no effect, 100 complete control
Text: as §1

kochia (Kochia scoparia) [16] = assay: Test A postemergence, kochia; settings: visual rating after approx. 10 d, 0 to 100 scale, 0 no effect, 100 complete control
Text: as §1

corn (Zea mays) = assay: Test A postemergence, corn; settings: visual rating after approx. 10 d, 0 to 100 scale, 0 no effect, 100 complete control
Text: as §1

[17] = tested on: pigweed (Amaranthus retroflexus); assay: Test A preemergence, pigweed; settings: visual rating after approx. 10 d, 0 to 100 scale, 0 no effect, 100 complete control
Text: as §1

[18] = tested on: blackgrass (Alopecurus myosuroides); assay: Test A postemergence, blackgrass; settings: visual rating after approx. 10 d, 0 to 100 scale, 0 no effect, 100 complete control
Text: as §1

SMILES | Plant response rating, Foxtail, Giant ([1]; 125 g ai/ha) | Plant response rating, Foxtail, Giant ([1]; 500 g ai/ha) | Plant response rating, Ryegrass, Italian ([2]; 125 g ai/ha) | Plant response rating, Ryegrass, Italian ([2]; 500 g ai/ha) | Plant response rating, Ryegrass, Italian ([3]; 125 g ai/ha) | Plant response rating, Ryegrass, Italian ([3]; 500 g ai/ha) | Plant response rating, Wheat ([4]; 125 g ai/ha) | Plant response rating, Wheat ([4]; 500 g ai/ha) | Plant response rating, Pigweed ([6]; 125 g ai/ha) | Plant response rating, Pigweed ([6]; 500 g ai/ha) | Plant response rating, Ragweed ([7]; 125 g ai/ha) | Plant response rating, Ragweed ([7]; 500 g ai/ha) | Plant response rating, Barnyardgrass ([8]; 125 g ai/ha) | Plant response rating, Barnyardgrass ([8]; 500 g ai/ha) | Plant response rating, Barnyardgrass ([10]; 125 g ai/ha) | Plant response rating, Barnyardgrass ([10]; 500 g ai/ha) | Plant response rating, Kochia (kochia (Kochia scoparia) [11]; 125 g ai/ha) | Plant response rating, Kochia (kochia (Kochia scoparia) [11]; 500 g ai/ha) | Plant response rating, Ragweed ([12]; 125 g ai/ha) | Plant response rating, Ragweed ([12]; 500 g ai/ha) | other results
O=C(Nc1ccccc1C(F)(F)F)C1C(=O)OCC1c1ccc(C(F)(F)F)cc1 (racemic) [Compound 9] | 30 | 80 | 0 | 20 | 0 | 0 | 0 | 0 | 0 | 0 | 0 | 0 | 0 | 0 | 0 | 0 | 0 | 20 | 0 | 0 | Plant response rating, Flood, Rice (rice (Oryza sativa); 250 g ai/ha): 0; Plant response rating, Flood, Rice (rice (Oryza sativa); 1000 g ai/ha): 0; Plant response rating, Flood, Ducksalad ([5]; 250 g ai/ha): 30; Plant response rating, Flood, Ducksalad ([5]; 1000 g ai/ha): 30; Plant response rating, Flood, Barnyardgrass ([9]; 250 g ai/ha): 0; Plant response rating, Flood, Barnyardgrass ([9]; 1000 g ai/ha): 0; Plant response rating, Flood, Sedge, Umbrella ([13]; 250 g ai/ha): 0; Plant response rating, Flood, Sedge, Umbrella ([13]; 1000 g ai/ha): 0; Plant response rating, Foxtail, Giant ([14]; 125 g ai/ha): 30; Plant response rating, Foxtail, Giant ([14]; 500 g ai/ha): 70; Plant response rating, Galium ([15]; 125 g ai/ha): 0; Plant response rating, Galium ([15]; 500 g ai/ha): 0; Plant response rating, Kochia (kochia (Kochia scoparia) [16]; 125 g ai/ha): 0; Plant response rating, Kochia (kochia (Kochia scoparia) [16]; 500 g ai/ha): 0; Plant response rating, Corn (corn (Zea mays); 125 g ai/ha): 0; Plant response rating, Corn (corn (Zea mays); 500 g ai/ha): 0; Plant response rating, Pigweed ([17]; 125 g ai/ha): 0; Plant response rating, Pigweed ([17]; 500 g ai/ha): 0; Plant response rating, Blackgrass ([18]; 125 g ai/ha): 0; Plant response rating, Blackgrass ([18]; 500 g ai/ha): 0
O=C(Nc1cccc(F)c1C(F)(F)F)C1C(=O)OCC1c1ccc(C(F)(F)F)cc1 (racemic) [Compound 10] | 40 | 50 | 0 | 0 | 0 | 0 | 0 | 0 | 0 | 0 | 0 | 0 | 0 | 0 | 0 | 0 | 0 | 0 | 0 | 0 | Plant response rating, Flood, Rice (rice (Oryza sativa); 250 g ai/ha): 0; Plant response rating, Flood, Rice (rice (Oryza sativa); 1000 g ai/ha): 0; Plant response rating, Flood, Ducksalad ([5]; 250 g ai/ha): 20; Plant response rating, Flood, Ducksalad ([5]; 1000 g ai/ha): 25; Plant response rating, Flood, Barnyardgrass ([9]; 250 g ai/ha): 0; Plant response rating, Flood, Barnyardgrass ([9]; 1000 g ai/ha): 0; Plant response rating, Flood, Sedge, Umbrella ([13]; 250 g ai/ha): 0; Plant response rating, Flood, Sedge, Umbrella ([13]; 1000 g ai/ha): 0; Plant response rating, Foxtail, Giant ([14]; 125 g ai/ha): 30; Plant response rating, Foxtail, Giant ([14]; 500 g ai/ha): 70; Plant response rating, Galium ([15]; 125 g ai/ha): 0; Plant response rating, Galium ([15]; 500 g ai/ha): 0; Plant response rating, Kochia (kochia (Kochia scoparia) [16]; 125 g ai/ha): 0; Plant response rating, Kochia (kochia (Kochia scoparia) [16]; 500 g ai/ha): 0; Plant response rating, Corn (corn (Zea mays); 125 g ai/ha): 0; Plant response rating, Corn (corn (Zea mays); 500 g ai/ha): 0; Plant response rating, Pigweed ([17]; 125 g ai/ha): 0; Plant response rating, Pigweed ([17]; 500 g ai/ha): 0; Plant response rating, Blackgrass ([18]; 125 g ai/ha): 0; Plant response rating, Blackgrass ([18]; 500 g ai/ha): 0
O=C(Nc1ccccc1F)C1C(=O)OCC1c1cccc(C(F)(F)F)c1 (racemic) [Compound 11] | 70 | 80 | 0 | 0 | 0 | 0 | 0 | 20 | 0 | 0 | 0 | 0 | 30 | 80 | 10 | 40 | 0 | 0 | 0 | 0 | Plant response rating, Flood, Rice (rice (Oryza sativa); 500 g ai/ha): 0; Plant response rating, Flood, Ducksalad ([5]; 500 g ai/ha): 0; Plant response rating, Flood, Barnyardgrass ([9]; 500 g ai/ha): 0; Plant response rating, Flood, Sedge, Umbrella ([13]; 500 g ai/ha): 0; Plant response rating, Foxtail, Giant ([14]; 125 g ai/ha): 20; Plant response rating, Foxtail, Giant ([14]; 500 g ai/ha): 60; Plant response rating, Galium ([15]; 125 g ai/ha): 0; Plant response rating, Galium ([15]; 500 g ai/ha): 0; Plant response rating, Kochia (kochia (Kochia scoparia) [16]; 125 g ai/ha): 0; Plant response rating, Kochia (kochia (Kochia scoparia) [16]; 500 g ai/ha): 0; Plant response rating, Corn (corn (Zea mays); 125 g ai/ha): 0; Plant response rating, Corn (corn (Zea mays); 500 g ai/ha): 0; Plant response rating, Pigweed ([17]; 125 g ai/ha): 0; Plant response rating, Pigweed ([17]; 500 g ai/ha): 0; Plant response rating, Blackgrass ([18]; 125 g ai/ha): 0; Plant response rating, Blackgrass ([18]; 500 g ai/ha): 0
